# Source: paper PMC5341070, “Small molecule inhibitors block Gas6-inducible TAM activation and tumorigenicity” (Scientific Reports, 2017)
# Like-named read-outs stand apart in the source and are kept apart here.
# Experiments:
# Experiment in all cases: biochemical
# Design in all cases: KINOMEscan (DiscoverX) competition binding screen of 97 human kinases, percent of control at 10 uM
# [1] = molecular target: CSF1R (Homo sapiens, UniProt P07333)
# Experimental: (§1) The KINOMEscan profiling of the inhibitors were performed as per directions by the manufacturer (DiscoverX) against a panel of human protein kinases.
# [2] = molecular target: T1, JNK1 (Homo sapiens, UniProt P45983)
# T1 construct: gene MAPK8
# Experimental: as §1
# [3] = molecular target: T2, LKB1 (Homo sapiens, UniProt Q15831)
# T2 construct: gene STK11
# Experimental: as §1
# [4] = molecular target: PLK3 (Homo sapiens, UniProt Q9H4B4)
# Experimental: as §1
# [5] = molecular target: EGFR (Homo sapiens, UniProt P00533)
# Experimental: as §1
# [6] = molecular target: RET (Homo sapiens, UniProt P07949)
# Experimental: as §1
# [7] = molecular target: MAPKAPK2 (Homo sapiens, UniProt P49137)
# Experimental: as §1
# [8] = molecular target: T3, JAK3(JH1domain-catalytic) (Homo sapiens, UniProt P52333)
# T3 construct: JH1domain-catalytic
# Experimental: as §1
# [9] = molecular target: RIOK2 (Homo sapiens, UniProt Q9BVS4)
# Experimental: as §1
# [10] = molecular target: PIK3C2B (Homo sapiens, UniProt O00750)
# Experimental: as §1
# [11] = molecular target: T4, TYK2(JH1domain-catalytic) (Homo sapiens, UniProt P29597)
# T4 construct: JH1domain-catalytic
# Experimental: as §1
# [12] = molecular target: T5, PCTK1 (Homo sapiens, UniProt Q00536)
# T5 construct: gene CDK16
# Experimental: as §1
# [13] = molecular target: PIK3CG (Homo sapiens, UniProt P48736)
# Experimental: as §1
# [14] = molecular target: AURKA (Homo sapiens, UniProt O14965)
# Experimental: as §1
# [15] = molecular target: DYRK1B (Homo sapiens, UniProt Q9Y463); details: binding competition, % of control
# Experimental: as §1
# [16] = molecular target: IGF1R (Homo sapiens, UniProt P08069)
# Experimental: as §1
# [17] = molecular target: CDK9 (Homo sapiens, UniProt P50750)
# Experimental: as §1
# [18] = molecular target: GSK3B (Homo sapiens, UniProt P49841)
# Experimental: as §1
# [19] = molecular target: FGFR2 (Homo sapiens, UniProt P21802)
# Experimental: as §1
# [20] = molecular target: PAK4 (Homo sapiens, UniProt O96013)
# Experimental: as §1
# [21] = molecular target: T6, IKK-alpha (Homo sapiens, UniProt O15111)
# T6 construct: gene CHUK
# Experimental: as §1
# [22] = molecular target: CDK3 (Homo sapiens, UniProt Q00526)
# Experimental: as §1
# [23] = molecular target: BRAF (Homo sapiens, UniProt P15056)
# Experimental: as §1
# [24] = read-out: R428 %Ctrl @ 10000nM, binding competition
# [25] = binding competition, % of control, read-out: RU-301 %Ctrl @ 10000nM
# T1 sequence (P45983 whole entry): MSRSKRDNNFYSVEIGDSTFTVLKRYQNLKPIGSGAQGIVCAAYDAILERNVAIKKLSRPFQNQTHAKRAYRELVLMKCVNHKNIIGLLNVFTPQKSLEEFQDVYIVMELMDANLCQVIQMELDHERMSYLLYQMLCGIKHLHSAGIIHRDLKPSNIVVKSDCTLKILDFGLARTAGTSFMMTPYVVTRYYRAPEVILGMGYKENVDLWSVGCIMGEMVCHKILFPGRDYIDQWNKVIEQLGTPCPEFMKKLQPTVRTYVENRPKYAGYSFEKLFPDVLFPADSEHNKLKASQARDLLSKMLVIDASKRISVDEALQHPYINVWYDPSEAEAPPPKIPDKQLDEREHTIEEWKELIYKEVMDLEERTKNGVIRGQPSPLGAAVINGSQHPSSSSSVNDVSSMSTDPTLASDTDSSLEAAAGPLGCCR
# Chain of EGFR (P00533 whole entry): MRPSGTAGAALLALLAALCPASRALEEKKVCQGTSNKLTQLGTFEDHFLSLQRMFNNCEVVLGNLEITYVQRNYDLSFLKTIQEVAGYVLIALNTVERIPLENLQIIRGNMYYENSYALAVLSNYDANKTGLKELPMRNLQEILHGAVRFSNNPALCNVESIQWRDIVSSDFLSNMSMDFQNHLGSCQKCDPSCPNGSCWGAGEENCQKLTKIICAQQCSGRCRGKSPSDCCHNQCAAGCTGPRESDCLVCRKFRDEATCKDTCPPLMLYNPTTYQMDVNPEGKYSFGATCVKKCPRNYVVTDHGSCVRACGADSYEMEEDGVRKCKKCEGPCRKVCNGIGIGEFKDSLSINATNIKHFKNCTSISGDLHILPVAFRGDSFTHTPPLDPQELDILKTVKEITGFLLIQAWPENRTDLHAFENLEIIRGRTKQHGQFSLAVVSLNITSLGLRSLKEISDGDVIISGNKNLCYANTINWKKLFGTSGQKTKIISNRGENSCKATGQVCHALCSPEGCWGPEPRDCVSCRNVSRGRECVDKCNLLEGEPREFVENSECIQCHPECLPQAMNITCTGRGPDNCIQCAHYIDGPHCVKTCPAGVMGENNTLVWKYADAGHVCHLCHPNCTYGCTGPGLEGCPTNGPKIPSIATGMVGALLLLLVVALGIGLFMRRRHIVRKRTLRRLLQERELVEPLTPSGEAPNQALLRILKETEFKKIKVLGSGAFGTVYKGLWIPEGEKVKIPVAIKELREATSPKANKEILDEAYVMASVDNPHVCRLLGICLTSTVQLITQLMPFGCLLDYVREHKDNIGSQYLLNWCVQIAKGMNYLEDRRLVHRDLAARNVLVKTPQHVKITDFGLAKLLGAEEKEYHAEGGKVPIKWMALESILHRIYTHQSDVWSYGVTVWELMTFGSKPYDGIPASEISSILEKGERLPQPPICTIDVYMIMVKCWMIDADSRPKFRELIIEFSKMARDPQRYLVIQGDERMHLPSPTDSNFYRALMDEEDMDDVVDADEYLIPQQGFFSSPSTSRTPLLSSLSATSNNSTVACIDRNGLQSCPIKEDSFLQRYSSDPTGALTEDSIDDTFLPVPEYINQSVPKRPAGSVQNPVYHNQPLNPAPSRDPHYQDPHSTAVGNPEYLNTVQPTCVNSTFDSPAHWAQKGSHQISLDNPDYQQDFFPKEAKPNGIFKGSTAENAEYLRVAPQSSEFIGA
# Chain of FGFR2 (P21802 whole entry): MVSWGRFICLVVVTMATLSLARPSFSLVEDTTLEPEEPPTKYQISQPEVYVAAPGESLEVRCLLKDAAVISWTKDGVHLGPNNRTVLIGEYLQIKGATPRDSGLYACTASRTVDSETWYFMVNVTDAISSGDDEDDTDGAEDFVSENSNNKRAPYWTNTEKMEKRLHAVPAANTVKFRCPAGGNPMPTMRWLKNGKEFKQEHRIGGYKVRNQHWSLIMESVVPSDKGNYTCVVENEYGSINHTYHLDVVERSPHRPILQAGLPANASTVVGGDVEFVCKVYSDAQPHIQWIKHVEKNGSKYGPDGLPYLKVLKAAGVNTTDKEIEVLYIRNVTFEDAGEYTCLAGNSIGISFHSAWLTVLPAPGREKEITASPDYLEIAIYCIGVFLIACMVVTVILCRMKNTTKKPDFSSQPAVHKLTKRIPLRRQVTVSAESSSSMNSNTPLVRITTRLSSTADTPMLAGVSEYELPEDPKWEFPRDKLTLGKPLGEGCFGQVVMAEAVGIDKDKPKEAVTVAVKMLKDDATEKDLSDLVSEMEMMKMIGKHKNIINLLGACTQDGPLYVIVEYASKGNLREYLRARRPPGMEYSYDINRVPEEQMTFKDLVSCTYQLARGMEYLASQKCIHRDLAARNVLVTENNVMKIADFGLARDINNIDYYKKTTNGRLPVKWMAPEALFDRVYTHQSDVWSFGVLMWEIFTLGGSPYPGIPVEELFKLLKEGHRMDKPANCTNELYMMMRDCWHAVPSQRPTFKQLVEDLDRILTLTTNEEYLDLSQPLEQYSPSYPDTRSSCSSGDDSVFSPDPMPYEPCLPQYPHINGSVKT
# Chain of BRAF (P15056 whole entry): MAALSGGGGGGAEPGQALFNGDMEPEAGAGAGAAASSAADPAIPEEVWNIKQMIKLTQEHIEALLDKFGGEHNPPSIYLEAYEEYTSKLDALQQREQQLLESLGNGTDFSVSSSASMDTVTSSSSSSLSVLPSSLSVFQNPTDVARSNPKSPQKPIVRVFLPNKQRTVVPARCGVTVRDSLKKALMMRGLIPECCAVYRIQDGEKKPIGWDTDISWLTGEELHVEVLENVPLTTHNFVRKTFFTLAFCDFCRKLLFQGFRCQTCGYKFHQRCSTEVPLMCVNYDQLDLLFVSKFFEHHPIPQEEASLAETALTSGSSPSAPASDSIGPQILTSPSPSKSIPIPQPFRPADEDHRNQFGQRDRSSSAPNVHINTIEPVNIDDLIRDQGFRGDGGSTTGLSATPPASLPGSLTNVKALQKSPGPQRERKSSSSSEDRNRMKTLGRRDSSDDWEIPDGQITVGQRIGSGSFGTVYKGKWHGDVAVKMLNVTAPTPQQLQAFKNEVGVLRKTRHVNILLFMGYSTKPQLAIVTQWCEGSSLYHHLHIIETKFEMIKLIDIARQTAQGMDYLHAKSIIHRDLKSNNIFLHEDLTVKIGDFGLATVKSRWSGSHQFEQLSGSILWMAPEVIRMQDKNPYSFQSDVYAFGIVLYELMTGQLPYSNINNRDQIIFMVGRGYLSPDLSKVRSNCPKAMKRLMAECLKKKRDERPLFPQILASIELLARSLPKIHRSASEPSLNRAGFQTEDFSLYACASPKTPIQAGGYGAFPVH
# Chain of DYRK1B (Q9Y463 whole entry): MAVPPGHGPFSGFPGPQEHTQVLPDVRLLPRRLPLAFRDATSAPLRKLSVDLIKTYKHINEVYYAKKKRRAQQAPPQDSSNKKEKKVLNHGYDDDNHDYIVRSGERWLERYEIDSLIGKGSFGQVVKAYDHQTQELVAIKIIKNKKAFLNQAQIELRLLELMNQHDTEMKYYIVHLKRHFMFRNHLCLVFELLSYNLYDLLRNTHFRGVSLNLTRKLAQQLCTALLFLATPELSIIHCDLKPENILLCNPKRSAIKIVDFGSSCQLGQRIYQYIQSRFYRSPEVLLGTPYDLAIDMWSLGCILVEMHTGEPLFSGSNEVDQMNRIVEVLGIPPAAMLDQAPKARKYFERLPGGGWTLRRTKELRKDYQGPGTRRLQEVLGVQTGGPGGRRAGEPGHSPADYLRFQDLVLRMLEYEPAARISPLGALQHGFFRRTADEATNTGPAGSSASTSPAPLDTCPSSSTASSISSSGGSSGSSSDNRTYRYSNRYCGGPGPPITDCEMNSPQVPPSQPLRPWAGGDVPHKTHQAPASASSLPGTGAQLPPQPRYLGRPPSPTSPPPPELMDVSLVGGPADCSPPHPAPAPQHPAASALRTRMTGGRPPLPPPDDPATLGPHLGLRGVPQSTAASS
# T4 sequence (P29597 whole entry): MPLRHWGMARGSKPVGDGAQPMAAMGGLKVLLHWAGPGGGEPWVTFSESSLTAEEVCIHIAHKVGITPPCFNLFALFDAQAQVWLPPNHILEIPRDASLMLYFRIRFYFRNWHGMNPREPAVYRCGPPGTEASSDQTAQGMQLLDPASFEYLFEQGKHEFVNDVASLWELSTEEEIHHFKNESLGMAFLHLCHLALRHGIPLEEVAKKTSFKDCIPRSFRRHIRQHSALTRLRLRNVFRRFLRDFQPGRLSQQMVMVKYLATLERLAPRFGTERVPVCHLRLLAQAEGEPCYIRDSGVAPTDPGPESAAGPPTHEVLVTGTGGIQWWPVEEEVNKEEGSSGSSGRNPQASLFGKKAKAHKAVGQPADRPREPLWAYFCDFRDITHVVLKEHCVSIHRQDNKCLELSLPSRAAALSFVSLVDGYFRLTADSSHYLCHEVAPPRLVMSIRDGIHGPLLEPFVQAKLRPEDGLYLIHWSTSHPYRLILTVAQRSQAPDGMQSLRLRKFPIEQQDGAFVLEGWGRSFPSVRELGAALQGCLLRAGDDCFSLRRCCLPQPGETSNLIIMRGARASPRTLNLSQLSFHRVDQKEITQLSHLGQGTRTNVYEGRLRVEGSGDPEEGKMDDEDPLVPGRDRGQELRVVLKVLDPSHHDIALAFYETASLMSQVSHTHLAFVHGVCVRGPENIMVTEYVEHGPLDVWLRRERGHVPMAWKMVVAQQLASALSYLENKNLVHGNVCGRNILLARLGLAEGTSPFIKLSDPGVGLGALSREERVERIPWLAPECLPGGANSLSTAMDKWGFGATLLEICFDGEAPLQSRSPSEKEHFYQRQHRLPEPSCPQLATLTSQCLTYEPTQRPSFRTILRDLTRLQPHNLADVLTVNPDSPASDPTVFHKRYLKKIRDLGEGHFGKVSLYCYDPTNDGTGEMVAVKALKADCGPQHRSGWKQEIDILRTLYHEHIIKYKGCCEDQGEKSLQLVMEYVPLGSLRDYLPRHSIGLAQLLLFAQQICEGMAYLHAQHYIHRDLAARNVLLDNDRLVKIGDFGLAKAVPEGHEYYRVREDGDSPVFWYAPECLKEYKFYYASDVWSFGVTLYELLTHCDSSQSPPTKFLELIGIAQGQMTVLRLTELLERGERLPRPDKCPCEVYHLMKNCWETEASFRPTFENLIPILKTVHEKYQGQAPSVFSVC
structure (smiles),measurement,setting,value
Nc1nc(Nc2ccc3c(c2)CC[C@@H](N2CCCC2)CC3)nn1-c1cc2c(nn1)-c1ccccc1CCC2 [R428],percent of control binding at 10 µM,[1]; [24],0.35%
same,percent of control binding at 10 µM,[2]; [24],14%
same,percent of control binding at 10 µM,[3]; [24],60%
same,percent of control binding at 10 µM,[4]; [24],29%
same,percent of control binding at 10 µM,[5]; [24],74%
same,percent of control binding at 10 µM,[6]; [24],0%
same,percent of control binding at 10 µM,[7]; [24],87%
same,percent of control binding at 10 µM,[8]; [24],0.2%
same,percent of control binding at 10 µM,[9]; [24],94%
same,percent of control binding at 10 µM,[10]; [24],31%
same,percent of control binding at 10 µM,[11]; [24],17%
same,percent of control binding at 10 µM,[12]; [24],90%
same,percent of control binding at 10 µM,[13]; [24],21%
same,percent of control binding at 10 µM,[14]; [24],0.15%
same,remaining binding at 10 µM,[15]; read-out: R428 %Ctrl @ 10000nM,46%
same,percent of control binding at 10 µM,[16]; [24],99%
same,percent of control binding at 10 µM,[17]; [24],92%
same,percent of control binding at 10 µM,[18]; [24],74%
same,percent of control binding at 10 µM,[19]; [24],30%
same,percent of control binding at 10 µM,[20]; [24],85%
same,percent of control binding at 10 µM,[21]; [24],0.5%
same,percent of control binding at 10 µM,[22]; [24],72%
same,percent of control binding at 10 µM,[23]; [24],64%
Cc1cc(CSc2ccccc2C(=O)NCCNc2ccc(C(F)(F)F)cc2[N+](=O)[O-])on1 [RU-301],remaining binding at 10 µM,[1]; [25],90%
same,remaining binding at 10 µM,[2]; [25],91%
same,remaining binding at 10 µM,[3]; [25],77%
same,remaining binding at 10 µM,[4]; [25],91%
same,remaining binding at 10 µM,[5]; [25],100%
same,remaining binding at 10 µM,[6]; [25],97%
same,remaining binding at 10 µM,[7]; [25],100%
same,remaining binding at 10 µM,[8]; [25],95%
same,remaining binding at 10 µM,[9]; [25],100%
same,remaining binding at 10 µM,[10]; [25],100%
same,remaining binding at 10 µM,[11]; [25],55%
same,remaining binding at 10 µM,[12]; [25],100%
same,remaining binding at 10 µM,[13]; [25],100%
same,remaining binding at 10 µM,[14]; [25],89%
same,remaining binding at 10 µM,[15]; read-out: RU-301 %Ctrl @ 10000nM,100%
same,remaining binding at 10 µM,[16]; [25],98%
same,remaining binding at 10 µM,[17]; [25],95%
same,remaining binding at 10 µM,[18]; [25],98%
same,remaining binding at 10 µM,[19]; [25],100%
same,remaining binding at 10 µM,[20]; [25],93%
same,remaining binding at 10 µM,[21]; [25],86%
same,remaining binding at 10 µM,[22]; [25],93%
same,remaining binding at 10 µM,[23]; [25],99%
